# In ChEMBL document CHEMBL4417636, “Small molecule inhibitors of pendrin ion exchange and pharmaceutical compositions” (2017):
# Calls of active or inactive are those of the source. The rule behind the calls is not given here.
# Tests used:
# [1] = target: Cystic fibrosis transmembrane conductance regulator (Homo sapiens) (UniProt P13569); test: Inhibition of CFTR in human bronchial epithelial cells assessed as effect on short-circuit current at 25 uM pre-incubated for 30 mins
# Pendrin [2] = target: T1, Pendrin (Homo sapiens, UniProt O43511); test: Inhibition of human pendrin expressed in FRT cells co-expressing EYFP-HIF assessed as reduction in pendrin-mediated C17F exchange incubated for 10 mins by pH-sensitive fluorescent probe BCECF-AM based fluorescence assay relative to control; type: cell-based
# T1 sequence (O43511 whole entry): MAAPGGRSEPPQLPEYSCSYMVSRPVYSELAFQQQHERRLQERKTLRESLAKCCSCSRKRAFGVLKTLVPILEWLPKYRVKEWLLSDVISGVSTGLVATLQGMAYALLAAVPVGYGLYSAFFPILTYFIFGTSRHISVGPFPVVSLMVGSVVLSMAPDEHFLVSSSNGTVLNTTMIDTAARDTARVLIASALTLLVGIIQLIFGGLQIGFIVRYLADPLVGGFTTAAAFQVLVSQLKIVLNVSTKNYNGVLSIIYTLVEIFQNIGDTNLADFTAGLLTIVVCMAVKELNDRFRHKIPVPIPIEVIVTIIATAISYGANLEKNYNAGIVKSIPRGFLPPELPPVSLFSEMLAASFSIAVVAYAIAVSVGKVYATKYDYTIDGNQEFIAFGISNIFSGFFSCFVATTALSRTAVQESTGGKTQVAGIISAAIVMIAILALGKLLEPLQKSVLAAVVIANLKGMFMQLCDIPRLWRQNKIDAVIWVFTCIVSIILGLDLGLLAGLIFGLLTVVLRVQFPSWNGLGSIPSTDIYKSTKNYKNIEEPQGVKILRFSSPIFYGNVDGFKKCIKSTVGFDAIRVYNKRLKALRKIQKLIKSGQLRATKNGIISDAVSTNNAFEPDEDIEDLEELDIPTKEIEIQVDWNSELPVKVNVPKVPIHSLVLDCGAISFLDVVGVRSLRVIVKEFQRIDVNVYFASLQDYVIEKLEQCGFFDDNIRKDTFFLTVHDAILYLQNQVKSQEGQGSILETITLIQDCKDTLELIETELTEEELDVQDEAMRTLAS
# Pendrin [3] = target: T1, Pendrin; test: Inhibition of human pendrin expressed in FRT cells co-expressing EYFP-HIF assessed as reduction in pendrin-mediated Cl(-)/r exchange incubated for 10 mins by pH-sensitive fluorescent probe BCECF-AM based fluorescence assay relative to control; type: cell-based
# Pendrin (Mus musculus) [4] = target: T2, Pendrin (Mus musculus) (UniProt Q9R155); test: Inhibition of mouse pendrin expressed in FRT cells co-expressing YFP-HIF assessed as reduction in pendrin-mediated exchange of Cl(-) with SCN(-) by pH-sensitive fluorescent probe BCECF-AM based fluorescence assay relative to control; type: cell-based
# T2 sequence (whole entry): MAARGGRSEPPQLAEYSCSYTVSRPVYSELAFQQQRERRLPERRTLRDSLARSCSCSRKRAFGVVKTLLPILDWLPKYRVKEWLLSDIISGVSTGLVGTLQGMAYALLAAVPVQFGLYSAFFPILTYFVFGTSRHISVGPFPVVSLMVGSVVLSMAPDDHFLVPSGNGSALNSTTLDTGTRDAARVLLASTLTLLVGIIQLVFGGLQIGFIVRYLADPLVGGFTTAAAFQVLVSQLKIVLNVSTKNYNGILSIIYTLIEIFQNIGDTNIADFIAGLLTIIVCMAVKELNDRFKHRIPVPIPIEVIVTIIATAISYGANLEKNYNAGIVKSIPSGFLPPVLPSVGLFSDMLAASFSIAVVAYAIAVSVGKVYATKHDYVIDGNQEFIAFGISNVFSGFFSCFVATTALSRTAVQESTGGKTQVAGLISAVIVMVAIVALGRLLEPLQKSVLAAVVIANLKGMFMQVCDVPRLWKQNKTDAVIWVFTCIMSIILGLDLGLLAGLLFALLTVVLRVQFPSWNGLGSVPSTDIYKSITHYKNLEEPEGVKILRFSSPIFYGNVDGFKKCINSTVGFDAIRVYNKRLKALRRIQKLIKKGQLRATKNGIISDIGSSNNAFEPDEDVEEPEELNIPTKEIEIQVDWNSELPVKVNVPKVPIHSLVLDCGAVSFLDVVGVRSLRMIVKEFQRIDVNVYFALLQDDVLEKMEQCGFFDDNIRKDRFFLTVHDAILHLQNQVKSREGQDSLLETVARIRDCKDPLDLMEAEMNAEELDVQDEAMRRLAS
# Pendrin (Mus musculus) [5] = target: T2, Pendrin (Mus musculus); test: Inhibition of mouse pendrin expressed in FRT cells co-expressing YFP-HIF assessed as reduction in pendrin-mediated exchange of Cl(-) with NO3(-) by pH-sensitive fluorescent probe BCECF-AM based fluorescence assay relative to control; type: cell-based
# Pendrin (Mus musculus) [6] = target: T2, Pendrin (Mus musculus); test: Inhibition of mouse pendrin expressed in FRT cells co-expressing YFP-HIF assessed as reduction in pendrin-mediated kinetics of CI7HCO3(-) exchange by pH-sensitive fluorescent probe BCECF-AM based fluorescence assay relative to control; type: cell-based
# Mus musculus = test: Potentiation of 20 mg/kg, ip furosemide-induced acute diuretic action in CD1 mouse assessed as increase in urinary Na+ excretion at 50 mg/kg, ip measured at 3 hrs relative to control; type: functional, organism-based
# Chain of Cystic fibrosis transmembrane conductance regulator (Homo sapiens) (P13569 whole entry, looked up): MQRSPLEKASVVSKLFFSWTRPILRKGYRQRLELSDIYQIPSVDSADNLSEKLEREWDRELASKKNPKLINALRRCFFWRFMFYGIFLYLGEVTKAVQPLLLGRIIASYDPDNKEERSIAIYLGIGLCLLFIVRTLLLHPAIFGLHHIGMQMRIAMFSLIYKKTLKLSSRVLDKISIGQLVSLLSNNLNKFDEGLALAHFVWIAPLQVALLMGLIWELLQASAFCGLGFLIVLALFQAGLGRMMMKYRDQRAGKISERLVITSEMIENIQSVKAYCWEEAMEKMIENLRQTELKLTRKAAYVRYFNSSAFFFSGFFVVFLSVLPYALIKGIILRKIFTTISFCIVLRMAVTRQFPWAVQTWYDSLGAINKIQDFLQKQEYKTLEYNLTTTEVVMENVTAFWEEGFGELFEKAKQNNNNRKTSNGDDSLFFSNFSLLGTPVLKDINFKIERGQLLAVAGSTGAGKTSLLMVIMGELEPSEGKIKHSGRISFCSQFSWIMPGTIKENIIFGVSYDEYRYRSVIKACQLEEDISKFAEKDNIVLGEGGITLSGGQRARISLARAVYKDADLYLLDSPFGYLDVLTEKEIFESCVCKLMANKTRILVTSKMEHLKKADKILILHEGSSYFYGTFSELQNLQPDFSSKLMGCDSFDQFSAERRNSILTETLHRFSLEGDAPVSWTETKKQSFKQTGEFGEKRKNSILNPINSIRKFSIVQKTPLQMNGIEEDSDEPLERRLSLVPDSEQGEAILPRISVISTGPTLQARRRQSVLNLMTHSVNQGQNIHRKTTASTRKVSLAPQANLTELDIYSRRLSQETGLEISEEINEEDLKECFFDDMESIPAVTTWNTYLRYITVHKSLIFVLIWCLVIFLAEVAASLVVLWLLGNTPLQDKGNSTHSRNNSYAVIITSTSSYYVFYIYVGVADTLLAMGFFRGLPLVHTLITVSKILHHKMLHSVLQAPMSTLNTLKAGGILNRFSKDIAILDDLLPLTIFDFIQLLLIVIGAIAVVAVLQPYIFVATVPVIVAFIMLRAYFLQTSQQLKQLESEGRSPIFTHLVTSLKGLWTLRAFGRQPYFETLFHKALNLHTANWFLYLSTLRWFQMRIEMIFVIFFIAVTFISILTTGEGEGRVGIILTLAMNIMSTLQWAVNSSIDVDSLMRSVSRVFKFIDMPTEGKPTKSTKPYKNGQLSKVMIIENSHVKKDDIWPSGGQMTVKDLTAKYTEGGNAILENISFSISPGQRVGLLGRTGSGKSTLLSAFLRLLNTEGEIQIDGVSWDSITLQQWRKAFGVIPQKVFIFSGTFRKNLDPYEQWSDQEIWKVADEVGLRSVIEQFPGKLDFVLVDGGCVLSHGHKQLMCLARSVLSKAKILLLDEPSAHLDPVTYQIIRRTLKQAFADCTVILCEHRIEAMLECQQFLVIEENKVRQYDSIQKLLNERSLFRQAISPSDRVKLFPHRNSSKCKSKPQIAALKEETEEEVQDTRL
Structure (SMILES),inhibition [1],IC50 (Pendrin [2]),IC50 (Pendrin [3]),inhibition (Pendrin (Mus musculus) [4]),inhibition (Pendrin (Mus musculus) [5]),inhibition (Pendrin (Mus musculus) [6]),Activity (Mus musculus)
Cn1nc(COc2cccc(F)c2)c2c1CCN(C(=O)Nc1ccc(Cl)cc1)C2,inactive,,,,,,
Cc1n[nH]c(-c2cc(S(=O)(=O)NC3CCCc4ccccc43)c(C)s2)c1C (configuration not stated),,9 µM,8 µM,Dose-dependent effect,Dose-dependent effect,Dose-dependent effect,Active
